# Target: T1, human Kv 1.5 (Homo sapiens, UniProt P22460)
# T1 construct: expressed in transfected cells; host or cells: mouse L-929 fibroblasts stably expressing human Kv1.5
# Assay: Block of IKur current in patch clamped L-929 cells stably expressing human Kv1.5
# Assay type: cell-based
# Conditions: L929, 0.3 μM; patch clamped mammalian L-929 cells expressing human Kv1.5 (IKur); read-out: KV1_5% Inh L929 @0.3 μM
# Excerpt: Synders, D. J. et al., “A rapidly activating and slowly inactivating potassium channel cloned from human heart: functional analysis after stable mammalian cell culture expression”, J. Gen. Physiol., 101:513-543 (1993). […]
# T1 sequence (P22460 whole entry): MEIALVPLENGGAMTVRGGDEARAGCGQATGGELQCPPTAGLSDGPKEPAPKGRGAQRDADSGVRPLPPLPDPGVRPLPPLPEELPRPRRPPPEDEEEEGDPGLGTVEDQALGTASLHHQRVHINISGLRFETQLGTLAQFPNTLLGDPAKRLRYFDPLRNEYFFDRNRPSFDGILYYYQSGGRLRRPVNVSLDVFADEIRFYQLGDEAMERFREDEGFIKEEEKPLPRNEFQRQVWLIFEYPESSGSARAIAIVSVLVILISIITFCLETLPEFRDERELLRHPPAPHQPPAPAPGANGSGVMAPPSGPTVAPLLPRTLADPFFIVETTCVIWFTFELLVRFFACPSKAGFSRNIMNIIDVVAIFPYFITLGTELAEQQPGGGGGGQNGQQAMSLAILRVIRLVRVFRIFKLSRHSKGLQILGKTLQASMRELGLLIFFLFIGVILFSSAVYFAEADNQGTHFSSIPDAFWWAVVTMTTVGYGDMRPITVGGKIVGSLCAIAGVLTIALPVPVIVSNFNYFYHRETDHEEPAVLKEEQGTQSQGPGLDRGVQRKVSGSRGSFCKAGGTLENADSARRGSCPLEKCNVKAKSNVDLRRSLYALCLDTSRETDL
row,SMILES,inhibition at 0.3 µM
1,"N#Cc1cccc(-c2c(Cl)nc(NCc3ccccn3)c3c(-c4ccccc4)cccc23)c1 [Example 61, 3-(3-chloro-8-phenyl-1-(pyridin-2-ylmethylamino)isoquinolin-4-yl)benzonitrile]",95.1%
2,"NS(=O)(=O)c1cncc(-c2c(Cl)nc(NCc3ccccn3)c3c(-c4ccccc4)cccc23)c1 [Example 10, 5-(3-Chloro-8-phenyl-1-(pyridin-2-ylmethylamino)isoquinolin-4-yl)pyridine-3-sulfonamide]",99%
3,"CS(=O)(=O)Nc1cncc(-c2c(Cl)nc(NCc3ccccn3)c3c(-c4ccccc4)cccc23)c1 [Example 47, N-(5-(3-chloro-8-phenyl-1-(pyridin-2-ylmethylamino)isoquinolin-4-yl)pyridin-3-yl)methanesulfonamide]",98.1%
4,"COc1cccc(CNc2nc(-c3cncc(S(N)(=O)=O)c3)cc3cccc(-c4ccccc4)c23)c1 [Example 54, 5-(1-(3-methoxybenzylamino)-8-phenylisoquinolin-3-yl)pyridine-3-sulfonamide]",82.4%
5,"COc1ccc(-c2cc3cccc(-c4ccccc4)c3c(NCc3ccccn3)n2)cn1 [Example 67, 3-(6-methoxypyridin-3-yl)-8-phenyl-N-(pyridin-2-ylmethyl)isoquinolin-1-amine]",96.9%
6,"NC(=O)CS(=O)(=O)c1cccc(-c2cc3cccc(-c4ccccc4)c3c(NCc3ccccn3)n2)c1 [Example 7, 2-(3-(8-Phenyl-1-(pyridin-2-ylmethylamino)isoquinolin-3-yl)phenylsulfonyl)acetamide]",34.8%
